Data as given in patent US20050266997A1, “Flowering stimulant composition using nitrobenzene” (priority 2002, published 2005).

Tested on: agricultural and horticultural crops
Settings: Nitrobenzene in a suitable formulation, used as spray or in granular form

**Q.** Which increasing flowers does the source give for `O=[N+]([O-])c1ccccc1` [Nitrobenzene] here?
**A.** 40 to 45%
